Reference: ChEMBL document CHEMBL1144945, “Development of progesterone receptor antagonists from 1,2-dihydrochromeno[3,4-f]quinoline agonist pharmacophore” (Bioorg Med Chem Lett, 2003)
The source made the active and inactive calls. No cut-off for these calls is given here.

Legend:
[1] = molecular target: T1, Glucocorticoid receptor (Homo sapiens) (UniProt P04150); test: Antagonist efficacy for glucocorticoid receptor; not active; type: functional
T1 sequence (whole entry): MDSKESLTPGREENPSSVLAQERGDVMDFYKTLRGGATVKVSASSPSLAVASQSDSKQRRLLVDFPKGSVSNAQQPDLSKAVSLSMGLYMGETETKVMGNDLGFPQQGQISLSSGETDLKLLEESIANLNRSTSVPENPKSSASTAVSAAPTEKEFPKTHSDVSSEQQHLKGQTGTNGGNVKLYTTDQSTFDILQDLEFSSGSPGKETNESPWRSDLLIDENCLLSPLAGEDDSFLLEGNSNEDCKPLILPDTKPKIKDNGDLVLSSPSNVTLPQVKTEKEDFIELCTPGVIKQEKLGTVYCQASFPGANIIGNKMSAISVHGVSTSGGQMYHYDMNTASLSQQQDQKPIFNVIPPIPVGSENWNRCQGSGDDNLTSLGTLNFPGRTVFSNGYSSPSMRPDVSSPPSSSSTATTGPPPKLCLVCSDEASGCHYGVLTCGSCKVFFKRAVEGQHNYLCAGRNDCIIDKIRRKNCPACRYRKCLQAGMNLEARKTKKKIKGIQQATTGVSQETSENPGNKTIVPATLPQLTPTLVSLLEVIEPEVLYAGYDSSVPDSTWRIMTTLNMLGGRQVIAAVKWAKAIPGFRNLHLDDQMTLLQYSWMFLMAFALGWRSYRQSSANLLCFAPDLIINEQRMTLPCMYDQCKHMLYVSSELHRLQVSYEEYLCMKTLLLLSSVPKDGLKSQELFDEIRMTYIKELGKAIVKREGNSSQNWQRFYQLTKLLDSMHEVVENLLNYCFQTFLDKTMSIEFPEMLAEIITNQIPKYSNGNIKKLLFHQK

[2] = molecular target: T2, Glucocorticoid receptor (Homo sapiens, UniProt P04150); test: Inhibition of antagonist activity towards glucocorticoid receptor; not active; type: functional
T2 sequence (P04150 whole entry): T1 sequence (whole entry)

[3] = molecular target: T3, Androgen receptor (Homo sapiens, UniProt P10275); test: Inhibition of antagonist activity towards human androgen receptor; type: functional
T3 sequence (P10275 whole entry): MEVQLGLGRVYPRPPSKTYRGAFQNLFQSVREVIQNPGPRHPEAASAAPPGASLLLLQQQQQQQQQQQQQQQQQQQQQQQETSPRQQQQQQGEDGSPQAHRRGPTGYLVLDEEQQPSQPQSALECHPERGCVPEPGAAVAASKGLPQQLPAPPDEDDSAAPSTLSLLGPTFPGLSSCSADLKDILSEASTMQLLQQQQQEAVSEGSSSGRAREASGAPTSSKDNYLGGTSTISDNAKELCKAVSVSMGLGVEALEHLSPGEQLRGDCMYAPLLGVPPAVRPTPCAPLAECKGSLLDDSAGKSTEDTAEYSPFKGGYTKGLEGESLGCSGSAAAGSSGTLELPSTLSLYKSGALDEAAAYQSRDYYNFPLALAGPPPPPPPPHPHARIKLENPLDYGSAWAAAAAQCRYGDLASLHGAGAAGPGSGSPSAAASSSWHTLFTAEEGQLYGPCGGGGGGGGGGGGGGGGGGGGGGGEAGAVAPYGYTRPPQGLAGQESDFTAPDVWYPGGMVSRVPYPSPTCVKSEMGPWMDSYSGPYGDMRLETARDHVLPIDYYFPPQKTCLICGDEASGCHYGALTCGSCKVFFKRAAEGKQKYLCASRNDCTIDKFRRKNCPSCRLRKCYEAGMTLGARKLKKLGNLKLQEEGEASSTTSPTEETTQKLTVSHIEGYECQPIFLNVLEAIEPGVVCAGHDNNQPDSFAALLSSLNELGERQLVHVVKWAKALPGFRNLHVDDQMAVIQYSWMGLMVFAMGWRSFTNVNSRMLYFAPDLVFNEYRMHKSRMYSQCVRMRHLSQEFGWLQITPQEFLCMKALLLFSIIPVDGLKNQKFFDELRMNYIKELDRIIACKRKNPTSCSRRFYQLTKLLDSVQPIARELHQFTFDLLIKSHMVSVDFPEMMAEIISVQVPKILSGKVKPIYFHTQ

[4] = molecular target: T4, Progesterone receptor (Homo sapiens) (UniProt P06401); test: Antagonist efficacy for human progesterone in CV-1 cells; type: functional, cell-based
T4 sequence (whole entry): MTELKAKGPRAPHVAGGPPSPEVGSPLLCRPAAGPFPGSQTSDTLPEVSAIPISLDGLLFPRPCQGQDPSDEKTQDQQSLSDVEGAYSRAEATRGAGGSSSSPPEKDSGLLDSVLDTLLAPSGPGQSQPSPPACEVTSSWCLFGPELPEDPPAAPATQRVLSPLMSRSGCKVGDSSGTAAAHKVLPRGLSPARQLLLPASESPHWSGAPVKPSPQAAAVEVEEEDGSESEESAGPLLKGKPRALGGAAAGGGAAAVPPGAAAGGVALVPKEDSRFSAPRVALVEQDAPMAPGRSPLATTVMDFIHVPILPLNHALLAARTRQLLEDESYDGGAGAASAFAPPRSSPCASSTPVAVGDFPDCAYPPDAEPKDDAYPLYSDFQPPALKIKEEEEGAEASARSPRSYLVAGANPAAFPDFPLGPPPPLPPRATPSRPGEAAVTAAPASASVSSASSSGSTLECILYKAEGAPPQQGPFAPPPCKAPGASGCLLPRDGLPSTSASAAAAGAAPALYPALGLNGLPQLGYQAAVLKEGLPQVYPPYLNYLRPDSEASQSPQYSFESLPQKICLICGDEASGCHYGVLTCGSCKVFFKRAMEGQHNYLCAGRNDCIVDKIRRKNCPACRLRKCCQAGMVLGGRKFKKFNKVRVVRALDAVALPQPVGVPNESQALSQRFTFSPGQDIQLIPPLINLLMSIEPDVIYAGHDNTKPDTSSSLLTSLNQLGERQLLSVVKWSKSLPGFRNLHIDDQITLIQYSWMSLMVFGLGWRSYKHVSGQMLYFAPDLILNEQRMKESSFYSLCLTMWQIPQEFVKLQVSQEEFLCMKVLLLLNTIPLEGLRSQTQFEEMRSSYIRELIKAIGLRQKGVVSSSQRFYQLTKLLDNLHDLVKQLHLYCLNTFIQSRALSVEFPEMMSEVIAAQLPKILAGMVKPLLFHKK

[5] = molecular target: Estrogen receptor (Homo sapiens) (UniProt Q92731+P03372); test: Antagonist efficacy for estrogen (hER) receptor; Not active; type: functional
[6] = molecular target: T1, Glucocorticoid receptor (Homo sapiens); test: Antagonist efficiency for glucocorticoid (hGR) receptor; type: functional
[7] = molecular target: T5, Progesterone receptor (Homo sapiens, UniProt P06401); test: Binding towards human progesterone receptor
T5 sequence (P06401 whole entry): T4 sequence (whole entry)

[8] = molecular target: T2, Glucocorticoid receptor; test: Inhibition of antagonist activity towards glucocorticoid (hGR) receptor; type: functional
[9] = molecular target: T6, Androgen receptor (Homo sapiens) (UniProt P10275); test: Antagonist efficacy for human sndrogen receptor; type: functional
T6 sequence (whole entry): T3 sequence (P10275 whole entry)

[10] = molecular target: T3, Androgen receptor; test: Inhibition of antagonist activity towards human Androgen receptor; type: functional
[11] = molecular target: T3, Androgen receptor
Description: Inhibition of antagonist activity towards Androgen receptor

[12] = molecular target: T2, Glucocorticoid receptor; test: Inhibition of antagonist activity towards glucocorticoid receptor; type: functional
[13] = molecular target: T4, Progesterone receptor (Homo sapiens); test: Antagonist efficacy for human progesterone in T47D human breast cancer cell; type: functional, cell-based
[14] = molecular target: T1, Glucocorticoid receptor (Homo sapiens); test: Antagonist efficacy for glucocorticoid (hGR) receptor; type: functional

| Efficacy [4] [%] | Efficacy [5] | Ki [7] [nM] | IC50 [8] [nM] | Efficacy [9] [%] | IC50 [10] [nM] | SMILES | IC50 [11] [nM] | IC50 [12] [nM] | further results |
| --- | --- | --- | --- | --- | --- | --- | --- | --- | --- |
| – | – | – | – | – | – | CC1CC(C)(C)Nc2ccc3c(c21)COc1c(F)cc(F)cc1-3 (configuration not stated) | – | – | Efficacy [1]: inactive; IC50 [2]: Not Active; IC50 [3]: 147 nM |
| 74 | inactive | 5.6 | 753 | 79 | 428 | CC1=CC(C)(C)Nc2ccc3c(c21)COc1c(F)cc(Cl)cc1-3 | – | – | Efficacy [6]: 95% |
| – | – | – | – | – | – | CC1CC(C)(C)Nc2ccc3c(c21)COc1ccc([N+](=O)[O-])cc1-3 (configuration not stated) | 63 | 1870 | – |
| – | – | – | – | – | – | CC1=CC(C)(C)Nc2ccc3c(c21)COc1c(F)cc(Br)cc1-3 | 90 | 2170 | – |
| 83 | inactive | 13.5 | 3030 | 87 | 644 | CC1=CC(C)(C)Nc2ccc3c(c21)COc1c(F)cc(F)cc1-3 | – | – | Efficacy [13]: 52%; Efficacy [14]: 57% |
